The target in assay [1] is serotoninergic 5-HT2A receptor (Homo sapiens, UniProt P28223). The assay is described as follows: Binding assay 5-HT2A (h), [3H]ketanserin, HEK-293 cells. Also on record: expressed in transfected cells; host or cells: HEK-293 cells. The following applies: read-out: 5-HT2A. Put shortly:
(§1)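 Scintillation counting detects receptor-bound radioligand. Compound tested at 1×10^−6 M.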

Assay [2] has as its target T1, serotonine transporter (SERT) receptor (Homo sapiens, UniProt P31645).
T1 construct: expressed in transfected cells; host or cells: CHO cells
In words: Binding assay SERT (h), [3H]imipramine, CHO cells. The conditions noted are these: read-out: SERT [%]. The method in brief:
as §1

The target of another assay is dopaminergic D3 receptor (Homo sapiens, UniProt P35462). In words: Binding assay D3 (h), [3H]methyl-spiperone, CHO cells. The arrangement: expressed in transfected cells; host or cells: CHO cells. The conditions noted are these: read-out: D3 [%]. Put shortly: as §1
Chain of dopaminergic D3 receptor (P35462 whole entry): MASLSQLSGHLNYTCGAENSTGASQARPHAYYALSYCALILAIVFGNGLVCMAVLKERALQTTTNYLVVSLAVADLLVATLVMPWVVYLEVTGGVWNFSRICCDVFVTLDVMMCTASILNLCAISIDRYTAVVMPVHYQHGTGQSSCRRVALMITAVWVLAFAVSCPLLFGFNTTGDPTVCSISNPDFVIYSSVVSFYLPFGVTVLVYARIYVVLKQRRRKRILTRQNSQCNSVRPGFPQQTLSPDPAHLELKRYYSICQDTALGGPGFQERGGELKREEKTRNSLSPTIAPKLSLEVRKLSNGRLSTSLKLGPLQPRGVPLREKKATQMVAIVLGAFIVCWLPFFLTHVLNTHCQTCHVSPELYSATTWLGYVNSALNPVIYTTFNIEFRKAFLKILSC
The target of assay [3] is T2, serotoninergic 5-HT1A receptor (Homo sapiens, UniProt P08908).
T2 sequence (P08908 1-422): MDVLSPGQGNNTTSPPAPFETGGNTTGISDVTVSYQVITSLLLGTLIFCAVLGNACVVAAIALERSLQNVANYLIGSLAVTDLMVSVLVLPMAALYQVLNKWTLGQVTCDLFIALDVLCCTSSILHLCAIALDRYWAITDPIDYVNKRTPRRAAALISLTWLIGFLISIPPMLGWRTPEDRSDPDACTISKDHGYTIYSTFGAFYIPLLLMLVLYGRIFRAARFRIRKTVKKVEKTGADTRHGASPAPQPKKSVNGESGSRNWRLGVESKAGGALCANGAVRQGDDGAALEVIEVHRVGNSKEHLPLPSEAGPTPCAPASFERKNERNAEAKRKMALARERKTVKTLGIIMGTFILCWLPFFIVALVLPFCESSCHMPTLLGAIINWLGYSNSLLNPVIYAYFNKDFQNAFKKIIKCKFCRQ
The assay is described as follows: Binding assay 5-HT1A (h), [3H]8-OH-DPAT, HEK-293 cells. The arrangement: expressed in transfected cells; host or cells: HEK-293 cells. The conditions noted are these: read-out: 5-HT1A. The method in brief:
as §1

For a further assay, the system named is adrenergic α1 receptor. The assay is described as follows: Binding assay α1 (non-selective), [3H]prazosin, rat cerebral cortex. The conditions noted are these: percent inhibition of control specific binding; compounds tested at 1×10^−6 M. Put shortly:
as §1

In assay [4] the target is serotoninergic 5-HT7 receptor (Homo sapiens, UniProt P34969). In words: Binding assay 5-HT7 (h), [3H]LSD, CHO cells. The arrangement: expressed in transfected cells; host or cells: CHO cells. The conditions noted are these: read-out: 5-HT7. The method in brief: as §1
Chain of serotoninergic 5-HT7 receptor (P34969 whole entry): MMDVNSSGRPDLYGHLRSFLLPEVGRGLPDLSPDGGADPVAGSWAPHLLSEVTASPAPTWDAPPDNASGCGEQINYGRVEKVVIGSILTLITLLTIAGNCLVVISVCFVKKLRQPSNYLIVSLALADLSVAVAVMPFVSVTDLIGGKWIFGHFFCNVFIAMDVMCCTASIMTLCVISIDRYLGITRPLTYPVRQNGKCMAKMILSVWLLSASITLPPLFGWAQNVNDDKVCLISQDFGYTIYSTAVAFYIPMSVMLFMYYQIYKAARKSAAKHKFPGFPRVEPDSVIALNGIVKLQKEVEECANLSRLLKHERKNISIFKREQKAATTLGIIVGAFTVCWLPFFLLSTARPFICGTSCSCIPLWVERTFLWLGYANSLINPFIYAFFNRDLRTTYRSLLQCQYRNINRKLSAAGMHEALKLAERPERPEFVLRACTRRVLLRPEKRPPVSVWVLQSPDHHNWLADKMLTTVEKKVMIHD
The target in assay [5] is serotoninergic 5-HT6 receptor (Homo sapiens, UniProt P50406). The assay is described as follows: Binding assay 5-HT6 (h), [3H]LSD, CHO cells. The arrangement: expressed in transfected cells; host or cells: CHO cells. The following applies: read-out: 5-HT6. The method in brief:
as §1

The target in another assay is dopaminergic D2 receptor (Homo sapiens, UniProt P14416). In words: Binding assay D2S (h), [3H]methyl-spiperone, HEK-293 cells. Also on record: expressed in transfected cells; host or cells: HEK-293 cells. The following applies: read-out: D2 [%]. Put shortly: as §1
Chain of dopaminergic D2 receptor (P14416 1-414 isoform P14416-2): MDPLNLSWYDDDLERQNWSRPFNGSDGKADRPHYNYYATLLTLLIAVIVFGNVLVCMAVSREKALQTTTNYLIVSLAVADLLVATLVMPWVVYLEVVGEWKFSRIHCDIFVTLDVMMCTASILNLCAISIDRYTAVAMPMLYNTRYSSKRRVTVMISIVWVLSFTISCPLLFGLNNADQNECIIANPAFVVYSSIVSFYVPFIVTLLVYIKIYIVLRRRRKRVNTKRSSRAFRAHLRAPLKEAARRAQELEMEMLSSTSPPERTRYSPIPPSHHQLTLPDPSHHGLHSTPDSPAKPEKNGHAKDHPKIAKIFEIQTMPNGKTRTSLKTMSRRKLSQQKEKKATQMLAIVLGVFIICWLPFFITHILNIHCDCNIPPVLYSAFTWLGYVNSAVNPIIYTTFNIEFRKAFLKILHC

Chain of serotoninergic 5-HT2A receptor (P28223 whole entry): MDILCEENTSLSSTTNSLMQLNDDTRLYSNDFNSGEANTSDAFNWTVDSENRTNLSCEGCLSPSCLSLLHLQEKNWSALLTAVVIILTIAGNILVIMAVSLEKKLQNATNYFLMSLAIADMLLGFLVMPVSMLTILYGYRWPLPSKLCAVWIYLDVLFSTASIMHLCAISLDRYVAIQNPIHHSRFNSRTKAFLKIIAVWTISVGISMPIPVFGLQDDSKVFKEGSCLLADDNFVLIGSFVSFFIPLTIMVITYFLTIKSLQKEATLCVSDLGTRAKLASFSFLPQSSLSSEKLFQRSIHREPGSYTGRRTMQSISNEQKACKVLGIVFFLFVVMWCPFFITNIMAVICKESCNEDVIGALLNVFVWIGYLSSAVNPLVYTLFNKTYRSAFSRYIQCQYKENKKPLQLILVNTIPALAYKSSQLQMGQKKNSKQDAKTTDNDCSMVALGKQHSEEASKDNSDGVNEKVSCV
Chain of serotoninergic 5-HT6 receptor (P50406 whole entry): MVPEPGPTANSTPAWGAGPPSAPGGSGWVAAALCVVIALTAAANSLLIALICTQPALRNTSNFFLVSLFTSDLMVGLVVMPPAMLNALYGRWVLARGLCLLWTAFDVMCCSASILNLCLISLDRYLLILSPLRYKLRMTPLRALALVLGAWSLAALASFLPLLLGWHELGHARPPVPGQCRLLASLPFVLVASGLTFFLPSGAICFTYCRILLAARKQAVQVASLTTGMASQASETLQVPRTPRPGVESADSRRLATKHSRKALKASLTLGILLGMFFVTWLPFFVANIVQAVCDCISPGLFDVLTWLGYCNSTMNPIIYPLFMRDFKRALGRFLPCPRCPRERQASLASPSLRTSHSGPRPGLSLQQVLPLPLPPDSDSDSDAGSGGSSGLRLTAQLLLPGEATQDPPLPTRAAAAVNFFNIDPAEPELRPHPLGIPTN
T1 sequence (P31645 whole entry): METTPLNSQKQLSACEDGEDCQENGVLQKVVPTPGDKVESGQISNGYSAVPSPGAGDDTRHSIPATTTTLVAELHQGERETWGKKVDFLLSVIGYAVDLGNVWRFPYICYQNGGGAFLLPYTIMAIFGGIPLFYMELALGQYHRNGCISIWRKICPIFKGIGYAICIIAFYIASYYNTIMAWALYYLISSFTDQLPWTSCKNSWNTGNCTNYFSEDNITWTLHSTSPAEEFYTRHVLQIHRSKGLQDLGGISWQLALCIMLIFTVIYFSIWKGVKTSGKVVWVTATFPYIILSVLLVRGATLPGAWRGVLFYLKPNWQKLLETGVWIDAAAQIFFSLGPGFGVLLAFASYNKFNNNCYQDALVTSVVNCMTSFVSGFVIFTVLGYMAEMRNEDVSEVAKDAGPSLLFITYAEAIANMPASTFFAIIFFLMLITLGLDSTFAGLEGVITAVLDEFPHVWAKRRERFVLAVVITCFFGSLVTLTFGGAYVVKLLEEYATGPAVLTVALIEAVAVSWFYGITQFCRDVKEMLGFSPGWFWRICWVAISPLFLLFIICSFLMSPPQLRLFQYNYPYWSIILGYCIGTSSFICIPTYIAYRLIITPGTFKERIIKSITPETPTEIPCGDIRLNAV

Take `O=S(=O)(NCCCCN1CCN(c2cccc3c2OCCO3)CC1)c1csc2ccccc12` [Compound 400, N-[4-[4-(2,3-Dihydro-1,4-benzodioxin-5-yl)piperazin-1-yl]butyl]benzothiophene-3-sulphonamide]: the inhibition at 1 µM came to 66% in assay [1]; 30% in assay [2]; 88% on dopaminergic D3 receptor; 100% in assay [3]; 95% in assay [4]; 9% in assay [5]. On dopaminergic D2 receptor, the inhibition at 1 µM was 83%. The “α1 [%]” value with adrenergic α1 receptor came to 94%.
Consider `O=C1COc2c(cccc2N2CCN(CCCCNS(=O)(=O)c3cccc(Cl)c3)CC2)N1` [Compound 209, 3-Chloro-N-[4-[4-(3-oxo-4H-1,4-benzoxazin-8-yl)piperazin-1-yl]butyl]benzenesulphonamide], for which the inhibition at 1 µM in assay [1] is 29%; in assay [2] it was -1%; on dopaminergic D3 receptor, 103%; in assay [3], 92%; in assay [4] it was 85%; in assay [5] it was 70%. For the same compound, the inhibition at 1 µM on dopaminergic D2 receptor was determined as 82%. Also, the “α1 [%]” value in the assay on adrenergic α1 receptor was found to be 90%.
As to `O=S(=O)(NCCCN1CCC(c2noc3cc(F)ccc23)CC1)c1ccc(-c2ccccc2)cc1` [Compound 112, N-[3-[4-(6-Fluoro-1,2-benzoxazol-3-yl)piperidin-1-yl]propyl]-4-phenylbenzenesulphonamide], the inhibition at 1 µM is 93% in assay [1]; -17% in assay [2]; 98% at dopaminergic D3 receptor; 20% in assay [3]; 95% in assay [4]; 94% in assay [5]. Also, the inhibition at 1 µM on dopaminergic D2 receptor is 103%. Further, in the assay on adrenergic α1 receptor, the “α1 [%]” value is given as 99%.
`O=S(=O)(NCCCN1CCN(c2cccc3c2OCCO3)CC1)c1ccc2c(c1)CCO2` [Compound 417, N-[3-[4-(2,3-Dihydro-1,4-benzodioxin-5-yl)piperazin-1-yl]propyl]-2,3-dihydrobenzofuran-5-sulphonamide]: the inhibition at 1 µM in assay [1] was -48%; in assay [2], -11%; on dopaminergic D3 receptor, 67%; in assay [3], 100%; in assay [4], 62%; in assay [5], 24%. For the same compound, on dopaminergic D2 receptor, the inhibition at 1 µM was found to be 68%. In the assay on adrenergic α1 receptor, the “α1 [%]” value is reported as 73%.
In the case of `O=C1Cc2cc(S(=O)(=O)NCCCCN3CCC(c4noc5cc(F)ccc45)CC3)ccc2N1` [Compound 324, N-[4-[4-(6-Fluoro-1,2-benzoxazol-3-yl)piperidin-1-yl]butyl]-2-oxo-indoline-5-sulphonamide], the inhibition at 1 µM in assay [1] amounted to 104%; in assay [2], 37%; at dopaminergic D3 receptor, 103%; in assay [3], 56%; in assay [4], 78%; in assay [5], 78%. The inhibition at 1 µM at dopaminergic D2 receptor stood at 105%. Moreover, the “α1 [%]” value with adrenergic α1 receptor came to 103%.
Turning to `O=S(=O)(NCCCN1CCC(c2noc3cc(F)ccc23)CC1)c1ccc2c(c1)OCCO2` [Compound 355, N-[3-[4-(6-Fluoro-1,2-benzoxazol-3-yl)piperidin-1-yl]propyl]-2,3-dihydro-1,4-benzodioxine-6-sulphonamide], the inhibition at 1 µM in assay [1] amounted to 103%; in assay [2] it was 45%; on dopaminergic D3 receptor, 97%; in assay [3] it was 60%; in assay [4], 84%; in assay [5], 75%. Besides, on dopaminergic D2 receptor, the inhibition at 1 µM turned out to be 99%. The “α1 [%]” value with adrenergic α1 receptor worked out at 105%.

These data come from patent publication US8822517B2, “Arylosulfonamides for the treatment of CNS diseases” (Adamed SP. Z O.O., priority 2010, dated 2014).
